Results published in patent US12275729B2 (Merck Sharp & Dohme LLC, priority 2017, dated 2025).

Each compound was assayed against IDO1 (Homo sapiens, UniProt P14902) (assay: IDO1 Cellular Assay in HeLa Cells Stimulated with IFNγ). Details: about 48 hours, read-out: Hela IC50.
Assay type: cell-based

Chain of IDO1 (P14902 whole entry): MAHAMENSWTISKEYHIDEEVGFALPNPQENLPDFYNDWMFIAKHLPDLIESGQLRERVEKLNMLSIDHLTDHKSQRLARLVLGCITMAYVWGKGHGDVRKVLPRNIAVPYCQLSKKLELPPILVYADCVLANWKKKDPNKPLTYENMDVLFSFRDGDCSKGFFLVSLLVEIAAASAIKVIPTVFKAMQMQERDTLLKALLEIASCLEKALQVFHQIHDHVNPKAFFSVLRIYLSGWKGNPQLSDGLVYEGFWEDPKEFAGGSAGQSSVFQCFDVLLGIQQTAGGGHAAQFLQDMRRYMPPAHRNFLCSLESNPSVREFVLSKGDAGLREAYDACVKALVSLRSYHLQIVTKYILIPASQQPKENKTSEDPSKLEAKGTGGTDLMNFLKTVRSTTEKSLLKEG

| SMILES | IC50 [nM] |
| --- | --- |
| CC(C(=O)Nc1ccc(F)cc1)c1ccc2c(c1)CCCN2C(=O)C1CCCO1 (stereo not shown) [Example 39, N-(4-fluorophenyl)-2-[1-(oxolane-2-carbonyl)-1,2,3,4-tetrahydroquinolin-6-yl]propanamide] | 5.4 |
| C[C@H](C(=O)Nc1ccc(F)cc1)c1ccc2c(c1)CCCN2C(=O)[C@@H]1CCCCO1 (single isomer, unassigned) [Example 88] | 3.1 |
| CCn1ccc(C(=O)NCc2ccc3c(c2)CCCN3C(=O)c2cccc(Cl)c2)n1 [Example 24] | 99.8 |
| COCCOCC(=O)N1CCCc2cc([C@H](C)C(=O)Nc3ccc(F)cc3)ccc21 [Example 77, (2S)-N-(4-fluorophenyl)-2-{1-[(2-methoxyethoxy)acetyl]-1,2,3,4-tetrahydroquinolin-6-yl}propanamide] | 1240 |
| CC(C)CC(=O)N1c2ccc(CNC(=O)c3ccc(Cl)cc3)cc2CCC1(C)C [Example 13, 4-chloro-N-{[2,2-dimethyl-1-(3-methylbutanoyl)-1,2,3,4-tetrahydroquinolin-6-yl]methyl}benzamide] | 98.6 |
| CC(C)CC(=O)N1CCCc2cc(CNC(=O)c3ccc(I)cc3)ccc21 [Example 12, 4-iodo-N-{[1-(3-methylbutanoyl)-1,2,3,4-tetrahydroquinolin-6-yl]methyl}benzamide] | 21.1 |
| Cc1ccc(C(=O)NCc2ccc3c(c2)CCCN3C(=O)CC(C)C)cc1 [Example 5, 4-methyl-N-{[1-(3-methylbutanoyl)-1,2,3,4-tetrahydroquinolin-6-yl]methyl}benzamide] | 77.9 |
| CC(C)(C(=O)Nc1ccc(F)cc1)c1ccc2c(n1)CCCN2C(=O)c1cccc(Cl)c1 [Example 188, 2-[5-(3-chlorobenzene-1-carbonyl)-5,6,7,8-tetrahydro-1,5-naphthyridin-2-yl]-N-(4-fluorophenyl)-2-methylpropanamide] | 5.7 |
| Cc1c(C(=O)N2CCCc3cc(C4(C(=O)Nc5ccc(F)cc5)CCC4)ccc32)cnn1C [Example 111, 1-[1-(1,5-dimethyl-1H-pyrazole-4-carbonyl)-1,2,3,4-tetrahydroquinolin-6-yl]-N-(4-fluorophenyl)cyclobutane-1-carboxamide] | 65.5 |
| CC(C)CC(=O)N1CCCc2cc(CNC(=O)c3ccc(Cl)c(F)c3)ccc21 [Example 9, 4-chloro-3-fluoro-N-{[1-(3-methylbutanoyl)-1,2,3,4-tetrahydroquinolin-6-yl]methyl}benzamide] | 49.3 |
| CC(C)CC(=O)N1CCCc2cc(CNC(=O)c3ccc(C(C)C)cc3)ccc21 [Example 3, N-{[1-(3-methylbutanoyl)-1,2,3,4-tetrahydroquinolin-6-yl]methyl}-4-(propan-2-yl)benzamide] | 209 |
| COC(C(=O)Nc1ccc(F)cn1)c1ccc2c(c1)CCCN2C(=O)C1CC1 (single isomer, unassigned) [Example 156, 2-(1-(cyclopropanecarbonyl)-1,2,3,4-tetrahydroquinolin-6-yl)-N-(5-fluoropyridin-2-yl)-2-methoxyacetamide] | 794 |
| COC(C(=O)Nc1ccc(F)cn1)c1ccc2c(c1)CCCN2C(=O)C1CC1 (single isomer, unassigned) [Example 157, 2-(1-(cyclopropanecarbonyl)-1,2,3,4-tetrahydroquinolin-6-yl)-N-(5-fluoropyridin-2-yl)-2-methoxyacetamide] | 154 |
| O=C(N1CCCc2cc(C3(C(=O)Nc4ccc(F)cn4)CCC3)ccc21)C1(F)CC1 [Example 99, 1-[1-(1-fluorocyclopropane-1-carbonyl)-1,2,3,4-tetrahydroquinolin-6-yl]-N-(5-fluoropyridin-2-yl)cyclobutane-1-carboxamide] | 16.8 |
| CO[C@H]1C[C@H](C(=O)N2CCCc3cc([C@H](C)C(=O)Nc4ccc(F)cc4)ccc32)C1 [Example 86, (2S)-N-(4-fluorophenyl)-2-[1-(trans-3-methoxycyclobutane-1-carbonyl)-1,2,3,4-tetrahydroquinolin-6-yl]propanamide] | 17.6 |

The next lines start with the values.

| IC50 [nM] | SMILES |
| --- | --- |
| 24 | O=C(Nc1ccc(F)cc1)C(c1ccc2c(n1)CCCN2C(=O)C1CC1)C1CC1 (single isomer, unassigned) [Example 261, 2-(5-(cyclopropanecarbonyl)-5,6,7,8-tetrahydro-1,5-naphthyridin-2-yl)-2-cyclopropyl-N-(4-fluorophenyl)acetamide] |
| 70.5 | CC(NC(=O)c1ccc(F)cc1)c1ccc2c(n1)CCCN2CC1CC1 (stereo not shown) [Example 227, N-{1-[5-(cyclopropylmethyl)-5,6,7,8-tetrahydro-1,5-naphthyridin-2-yl]ethyl}-4-fluorobenzamide] |
| 16.7 | CC(C(=O)Nc1ccc(F)cc1)c1ccc2c(n1)CCCN2C(=O)C1CCOCC1 (stereo not shown) [Example 166, N-(4-fluorophenyl)-2-[5-(oxane-4-carbonyl)-5,6,7,8-tetrahydro-1,5-naphthyridin-2-yl]propanamide] |
| 25.7 | O=C(NC1(c2ccc3c(n2)CCCN3C(=O)C2CC2)CC1)c1ccc(F)cc1 [Example 168, N-{1-[5-(cyclopropanecarbonyl)-5,6,7,8-tetrahydro-1,5-naphthyridin-2-yl]cyclopropyl}-4-fluorobenzamide] |
| 24.6 | CC(C)NC(=O)N1CCCc2nc([C@@H](C)C(=O)Nc3ccc(F)cc3)ccc21 [Example 217, 6-{(2R)-1-[(4-fluorophenyl)amino]-1-oxopropan-2-yl}-N-(propan-2-yl)-3,4-dihydro-1,5-naphthyridine-1(2H)-carboxamide] |
| 17 | CC(NC(=O)c1ccc(F)cc1)c1ccc2c(n1)CCCN2c1cc(C(F)(F)F)ncn1 (stereo not shown) [Example 235, 4-fluoro-N-(1-{5-[6-(trifluoromethyl)pyrimidin-4-yl]-5,6,7,8-tetrahydro-1,5-naphthyridin-2-yl}ethyl)benzamide] |
| 10.9 | O=C(Nc1ccc(F)cc1)C1(c2ccc3c(n2)CCN3c2ccccn2)CCC1 [Example 271, N-(4-fluorophenyl)-1-[1-(pyridin-2-yl)-2,3-dihydro-1H-pyrrolo[3,2-b]pyridin-5-yl]cyclobutane-1-carboxamide] |
| 91.1 | CC(C(=O)Nc1ccc(F)cc1)c1ccc2c(c1)CCCN2C1COC1 (stereo not shown) [Example 231, N-(4-fluorophenyl)-2-[1-(oxetan-3-yl)-1,2,3,4-tetrahydroquinolin-6-yl]propanamide] |
| 3.2 | CC(NC(=O)c1ccc(Cl)cc1)c1ccc2c(n1)CCCN2C(=O)c1cc(C2CC2)ccn1 (stereo not shown) [Example 288, 4-chloro-N-(1-(5-(4-cyclopropylpicolinoyl)-5,6,7,8-tetrahydro-1,5-naphthyridin-2-yl)ethyl)benzamide] |
| 540 | CC(NC(=O)c1ccc(F)cc1)c1ccc2c(n1)CCCN2C(=O)C1(C)CCCCO1 (stereo not shown) [Example 136, 4-fluoro-N-{1-[5-(2-methyloxane-2-carbonyl)-5,6,7,8-tetrahydro-1,5-naphthyridin-2-yl]ethyl}benzamide] |
| 9.3 | O=C(NC1(c2ccc3c(n2)CCCN3c2ccncn2)CC1)c1ccc(F)cc1 [Example 246, 4-fluoro-N-(1-(5-(pyrimidin-4-yl)-5,6,7,8-tetrahydro-1,5-naphthyridin-2-yl)cyclopropyl)benzamide] |
| 5.6 | CC(C(=O)Nc1ccc(F)cc1)c1ccc2c(n1)CCCN2C(=O)C1CCCCO1 (single isomer, unassigned) [Example 161, N-(4-fluorophenyl)-2-[5-(oxane-2-carbonyl)-5,6,7,8-tetrahydro-1,5-naphthyridin-2-yl]propanamide] |
| 9.7 | O=C(NC1(c2ccc3c(n2)CCCN3C(=O)[C@H]2CCCO2)CC1)c1ccc(F)cc1 [Example 176, 4-fluoro-N-(1-{5-[(2R)-oxolane-2-carbonyl]-5,6,7,8-tetrahydro-1,5-naphthyridin-2-yl}cyclopropyl)benzamide] |
| 1.5 | COC(=O)N1CCCc2nc(C3(C(=O)Nc4ccc(F)cc4)CCC3)ccc21 [Example 216, methyl 6-{1-[(4-fluorophenyl)carbamoyl]cyclobutyl}-3,4-dihydro-1,5-naphthyridine-1(2H)-carboxylate] |

Same assay, conditions: read-out: Hela IC50

| IC50 [nM] | SMILES |
| --- | --- |
| 0.92 | O=C(OC1CC1)N1CCCc2nc(C3(C(=O)Nc4ccc(Cl)nc4)CCC3)ccc21 [Example 412, cyclopropyl 6-(1-((6-chloropyridin-3-yl)carbamoyl)cyclobutyl)-3,4-dihydro-1,5-naphthyridine-1(2H)-carboxylate] |
| 88.2 | CC(NC(=O)c1ccc(C#N)cc1)c1ccc2c(n1)CCCN2C(=O)OC1CC1 (stereo not shown) [Example 337, cyclopropyl 6-(1-(4-cyanobenzamido)ethyl)-3,4-dihydro-1,5-naphthyridine-1(2H)-carboxylate] |
| 352 | CC(NC(=O)c1ccc(F)cc1)c1ccc2c(n1)CCCN2c1cc(C#N)ccn1 (stereo not shown) [Example 378, N-(1-(5-(4-cyanopyridin-2-yl)-5,6,7,8-tetrahydro-1,5-naphthyridin-2-yl)ethyl)-4-fluorobenzamide] |
| 25.7 | C[C@H](NC(=O)c1ccc(F)cc1)c1ccc2c(n1)CCCN2c1cccc(F)n1 [Example 387, (S)-4-fluoro-N-(1-(5-(6-fluoropyridin-2-yl)-5,6,7,8-tetrahydro-1,5-naphthyridin-2-yl)ethyl)benzamide] |
| 5700 | CC(NC(=O)c1cccc(C#N)c1)c1ccc2c(n1)CCCN2C(=O)OC1CC1 (stereo not shown) [Example 335, cyclopropyl 6-(1-(3-cyanobenzamido)ethyl)-3,4-dihydro-1,5-naphthyridine-1(2H)-carboxylate] |
| 1530 | CC(NC(=O)c1ccc(F)cc1)c1ccc2c(n1)CCCN2c1ncccc1F (stereo not shown) [Example 375, 4-fluoro-N-(1-(5-(3-fluoropyridin-2-yl)-5,6,7,8-tetrahydro-1,5-naphthyridin-2-yl)ethyl)benzamide] |
| 25 | Cc1nc(N2CCCc3nc(C(C)NC(=O)c4ccc(Cl)cc4)ccc32)c2cc(Cl)ccc2n1 (stereo not shown) [Example 359, 5-(6-chloro-2-methylquinazolin-4-yl)-2-(1-(4-chlorobenzamido)ethyl)-5,6,7,8-tetrahydro-1,5-naphthyridin-1-ium 2,2,2-trifluoroacetate] |
| 6.38 | Cc1nccc(N2CCCc3nc(C(C)C(=O)Nc4ccc(F)cc4)ccc32)n1 (stereo not shown) [Example 373, N-(4-fluorophenyl)-2-(5-(2-methylpyrimidin-4-yl)-5,6,7,8-tetrahydro-1,5-naphthyridin-2-yl)propanamide] |
